Reference: ChEMBL document CHEMBL1201862, “PubChem BioAssay data set” (2004)
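Where inhibition never reached the appropriate level, the endpoint shown equals the highest concentration tested. Otherwise, values were interpolated linearly from a five-concentration, 48-hour dose response in 96-well plates. GI50 marks 50% less growth.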 The source made the active and inactive calls. No stated cut-off is given here; in the data, active = GI50 up to about 1.1 µM and inactive = higher.

Assays:
Assay in all cases: inhibition of tumour cell growth, NCI panel, 48 h
[1] = system: 786-0
[2] = system: A498
[3] = system: A549
[4] = system: ACHN
[5] = system: CAKI-1
[6] = system: CCRF-CEM
[7] = system: COLO 205
[8] = system: DLD-1
[9] = system: DMS-114
[10] = system: DMS-273
[11] = system: EKVX
[12] = system: HCC 2998
[13] = system: HCT-116
[14] = system: HCT-15
[15] = system: HL-60
[16] = system: HOP-18
[17] = system: HOP-62
[18] = system: HT-29
[19] = system: IGROV-1
[20] = system: K562
[21] = system: KM-20L2
[22] = system: KM12
[23] = system: LOX IMVI
[24] = system: LXFL 529
[25] = system: M14
[26] = system: M19-MEL
[27] = system: MOLT-4
[28] = system: Malme-3M
[29] = system: NCI-H226
[30] = system: NCI-H23
[31] = system: NCI-H460
[32] = system: NCI-H522
[33] = system: OVCAR-3
[34] = system: OVCAR-4
[35] = system: OVCAR-5
[36] = system: OVCAR-8
[37] = system: RXF 393
[38] = system: RXF 631
[39] = system: SF-268
[40] = system: SF-295
[41] = system: SK-MEL-28
[42] = system: SK-MEL-2
[43] = system: SK-MEL-5
[44] = system: SK-OV-3
[45] = system: SN12C
[46] = system: SNB-19
[47] = system: SNB-75
[48] = system: SR
[49] = system: SW-620
[50] = system: TK-10
[51] = system: U-251
[52] = system: UACC-257
[53] = system: UACC-62
[54] = system: UO-31
[55] = system: HOP-92
[56] = system: RPMI-8226
[57] = system: SF-539
[58] = system: SNB-78
[59] = system: XF498

## N#CCCCCCOCCOCCOCCOCCOCCCCCC#N
[1]
  GI50: > 100 µM (inactive)
[2]
  GI50: > 100 µM (inactive)
[3]
  GI50: > 100 µM (inactive)
[4]
  GI50: > 100 µM (inactive)
[5]
  GI50: > 100 µM (inactive)
[6]
  GI50: > 100 µM (inactive)
[7]
  GI50: > 100 µM (inactive)
[8]
  GI50: > 100 µM (inactive)
[9]
  GI50: > 100 µM (inactive)
[10]
  GI50: > 100 µM (inactive)
[11]
  GI50: > 100 µM (inactive)
[12]
  GI50: > 100 µM (inactive)
[13]
  GI50: > 100 µM (inactive)
[14]
  GI50: > 100 µM
[15]
  GI50: > 100 µM (inactive)
[16]
  GI50: > 100 µM (inactive)
[17]
  GI50: > 100 µM (inactive)
[18]
  GI50: > 100 µM (inactive)
[19]
  GI50: > 100 µM (inactive)
[20]
  GI50: 68.5 µM (inactive)
[21]
  GI50: > 100 µM (inactive)
[22]
  GI50: > 100 µM (inactive)
[23]
  GI50: > 100 µM (inactive)
[24]
  GI50: > 100 µM (inactive)
[25]
  GI50: > 100 µM (inactive)
[26]
  GI50: > 100 µM (inactive)
[27]
  GI50: > 100 µM (inactive)
[28]
  GI50: > 100 µM (inactive)
[29]
  GI50: > 100 µM (inactive)
[30]
  GI50: > 100 µM (inactive)
[31]
  GI50: > 100 µM (inactive)
[32]
  GI50: > 100 µM (inactive)
[33]
  GI50: 97.7 µM (inactive)
[34]
  GI50: > 100 µM (inactive)
[35]
  GI50: > 100 µM (inactive)
[36]
  GI50: > 100 µM (inactive)
[37]
  GI50: > 100 µM (inactive)
[38]
  GI50: > 100 µM (inactive)
[39]
  GI50: > 100 µM (inactive)
[40]
  GI50: > 100 µM (inactive)
[41]
  GI50: > 100 µM (inactive)
[42]
  GI50: > 100 µM (inactive)
[43]
  GI50: > 100 µM (inactive)
[44]
  GI50: > 100 µM (inactive)
[45]
  GI50: > 100 µM (inactive)
[46]
  GI50: > 100 µM (inactive)
[47]
  GI50: > 100 µM (inactive)
[48]
  GI50: > 100 µM (inactive)
[49]
  GI50: > 100 µM (inactive)
[50]
  GI50: > 100 µM (inactive)
[51]
  GI50: > 100 µM (inactive)
[52]
  GI50: 81.1 µM (inactive)
[53]
  GI50: 68.7 µM (inactive)
[54]
  GI50: > 100 µM (inactive)

## COc1cc([C@H]2Oc3cc(O)c4c(=O)cc(-c5ccc(O)cc5)oc4c3O[C@@H]2CO)ccc1O
[1]
  GI50: 15.3 µM (inactive)
[2]
  GI50: 16.8 µM (inactive)
[4]
  GI50: 12.9 µM (inactive)
[5]
  GI50: 15.1 µM (inactive)
[6]
  GI50: 13.6 µM (inactive)
[7]
  GI50: 15.2 µM (inactive)
[8]
  GI50: 15.3 µM (inactive)
[9]
  GI50: 15.9 µM (inactive)
[10]
  GI50: 14.2 µM (inactive)
[12]
  GI50: 15 µM (inactive)
[13]
  GI50: 13.5 µM (inactive)
[15]
  GI50: 18.8 µM (inactive)
[17]
  GI50: 14.5 µM (inactive)
[55]
  GI50: 25.5 µM (inactive)
[19]
  GI50: 19.7 µM (inactive)
[20]
  GI50: 23.4 µM (inactive)
[24]
  GI50: 15.1 µM (inactive)
[25]
  GI50: 16.8 µM (inactive)
[26]
  GI50: 17.7 µM (inactive)
[27]
  GI50: 18.7 µM (inactive)
[28]
  GI50: 18.8 µM (inactive)
[29]
  GI50: 18.5 µM (inactive)
[30]
  GI50: 14.6 µM (inactive)
[31]
  GI50: 4.54 µM (inactive)
[32]
  GI50: 4.76 µM (inactive)
[34]
  GI50: 20.1 µM (inactive)
[56]
  GI50: 16.1 µM (inactive)
[38]
  GI50: 10.6 µM (inactive)
[39]
  GI50: 2.28 µM (inactive)
[57]
  GI50: > 10 µM (inactive)
[41]
  GI50: 14.5 µM (inactive)
[42]
  GI50: 16.1 µM (inactive)
[44]
  GI50: 14.6 µM (inactive)
[45]
  GI50: > 10 µM (inactive)
[47]
  GI50: 5.45 µM (inactive)
[58]
  GI50: 14.6 µM (inactive)
[48]
  GI50: 15.3 µM (inactive)
[53]
  GI50: 11.1 µM (inactive)
[54]
  GI50: 12.6 µM (inactive)

## CC1(Br)CC2OC3(Br)C=CC(C)(O)C2(CC1=O)C3(C)C (stereo not drawn)
[1]
  GI50: > 100 µM (inactive)
[2]
  GI50: > 100 µM (inactive)
[3]
  GI50: > 100 µM (inactive)
[4]
  GI50: > 100 µM (inactive)
[5]
  GI50: > 100 µM (inactive)
[6]
  GI50: 16 µM (inactive)
[7]
  GI50: > 100 µM (inactive)
[8]
  GI50: 98.2 µM (inactive)
[9]
  GI50: > 100 µM (inactive)
[10]
  GI50: > 100 µM (inactive)
[11]
  GI50: > 100 µM (inactive)
[12]
  GI50: > 100 µM (inactive)
[13]
  GI50: > 92 µM (inactive)
[14]
  GI50: > 100 µM
[16]
  GI50: > 100 µM (inactive)
[17]
  GI50: > 100 µM (inactive)
[55]
  GI50: 64.4 µM (inactive)
[18]
  GI50: > 100 µM (inactive)
[19]
  GI50: > 100 µM (inactive)
[20]
  GI50: 19.1 µM (inactive)
[21]
  GI50: > 100 µM (inactive)
[22]
  GI50: > 100 µM (inactive)
[23]
  GI50: > 100 µM (inactive)
[24]
  GI50: 98.9 µM (inactive)
[25]
  GI50: > 100 µM (inactive)
[27]
  GI50: > 94 µM (inactive)
[28]
  GI50: > 100 µM (inactive)
[29]
  GI50: > 100 µM (inactive)
[30]
  GI50: > 100 µM (inactive)
[31]
  GI50: > 100 µM (inactive)
[32]
  GI50: 53.3 µM (inactive)
[33]
  GI50: > 100 µM (inactive)
[34]
  GI50: > 100 µM (inactive)
[35]
  GI50: > 100 µM (inactive)
[36]
  GI50: > 100 µM (inactive)
[56]
  GI50: 36.8 µM (inactive)
[39]
  GI50: > 100 µM (inactive)
[40]
  GI50: > 100 µM (inactive)
[57]
  GI50: > 100 µM (inactive)
[41]
  GI50: > 100 µM (inactive)
[42]
  GI50: > 100 µM (inactive)
[43]
  GI50: > 100 µM (inactive)
[44]
  GI50: > 100 µM (inactive)
[45]
  GI50: > 100 µM (inactive)
[46]
  GI50: > 100 µM (inactive)
[47]
  GI50: 64.6 µM (inactive)
[58]
  GI50: > 100 µM (inactive)
[48]
  GI50: 82.4 µM (inactive)
[49]
  GI50: > 100 µM (inactive)
[50]
  GI50: > 100 µM (inactive)
[51]
  GI50: > 100 µM (inactive)
[52]
  GI50: > 100 µM (inactive)
[53]
  GI50: 99.1 µM (inactive)
[54]
  GI50: > 83.9 µM (inactive)
[59]
  GI50: > 90.4 µM (inactive)
